Laboratory results as given in PubChem BioAssay AID192 (DTP/NCI, 2004).
Where “and” joins values, the source holds several entries; their conditions need not be identical. Equal values may be shown once. Toxic doses and inconclusive results are not listed.

System: BDF1 mice, B16 melanoma ip, median survival T/C
Assay: NCI In Vivo Anticancer Drug Screen. Data for tumor model B16 Melanoma (intraperitoneal) in B6D2F1 (BDF1) mice
Conditions: endpoint: median survival time, higher = longer survival
Procedure: The antitumor activity of compounds was measured in mice bearing transplantable tumors. Survival or tumor size were measured and the results are expressed as the measurement made in the treated group (T) divided by the measurement made in the vehicle treated control group (C). The tumor model used in this assay is B16 Melanoma (intraperitoneal) in B6D2F1 (BDF1) mice

[1] = dose: 12.5 mg/kg/injection, schedule: Q01DX009 (ip), vehicle: saline
[2] = dose: 25.0 mg/kg/injection, schedule: Q01DX009 (ip), vehicle: saline
[3] = dose: 50.0 mg/kg/injection, schedule: Q01DX009 (ip), vehicle: saline
[4] = dose: 100.0 mg/kg/injection, schedule: Q01DX009 (ip), vehicle: Klucel (hydroxypropylcellulose) (HPC)
[5] = dose: 200.0 mg/kg/injection, schedule: Q01DX009 (ip), vehicle: Klucel (hydroxypropylcellulose) (HPC)
[6] = dose: 400.0 mg/kg/injection, schedule: Q01DX009 (ip), vehicle: Klucel (hydroxypropylcellulose) (HPC)
[7] = dose: 4.0 mg/kg/injection, schedule: Q01DX009 (ip), vehicle: saline with Tween-80
[8] = dose: 8.0 mg/kg/injection, schedule: Q01DX009 (ip), vehicle: saline with Tween-80
[9] = dose: 12.5 mg/kg/injection, schedule: Q01DX009 (ip), vehicle: saline with Tween-80
[10] = dose: 25.0 mg/kg/injection, schedule: Q01DX009 (ip), vehicle: saline with Tween-80
[11] = dose: 50.0 mg/kg/injection, schedule: Q01DX009 (ip), vehicle: saline with Tween-80
[12] = dose: 100.0 mg/kg/injection, schedule: Q01DX009 (ip), vehicle: saline with Tween-80
[13] = dose: 200.0 mg/kg/injection, schedule: Q01DX009 (ip), vehicle: saline with Tween-80
[14] = dose: 12.5 mg/kg/injection, schedule: Q01DX009 (ip), vehicle: Klucel (hydroxypropylcellulose) (HPC)
[15] = dose: 25.0 mg/kg/injection, schedule: Q01DX009 (ip), vehicle: Klucel (hydroxypropylcellulose) (HPC)
[16] = dose: 50.0 mg/kg/injection, schedule: Q01DX009 (ip), vehicle: Klucel (hydroxypropylcellulose) (HPC)

## OC(c1ccccc1)(c1ccccc1)C1CC1c1ccncc1 (stereo not drawn)
[1]
  T/C: 113 % of control
[2]
  T/C: 95 % of control
[3]
  T/C: 102 % of control
dose: 100.0 mg/kg/injection, schedule: Q01DX009 (ip), vehicle: saline
  T/C: 107 % of control

## Cc1cc(Cl)ccc1NC(=O)c1cccc(C(=O)Nc2ccc(Cl)cc2C)c1
[4]
  T/C: 100 % of control
[5]
  T/C: 100 % of control
[6]
  T/C: 96 % of control

## CC1CN1c1nc(N2CC2C)nc(N2CC2C)n1 (stereo not drawn)
dose: 0.25 mg/kg/injection, schedule: Q01DX009 (ip), vehicle: saline
  T/C: 105 % of control
dose: 0.5 mg/kg/injection, schedule: Q01DX009 (ip), vehicle: saline
  T/C: 97 % of control
dose: 1.0 mg/kg/injection, schedule: Q01DX009 (ip), vehicle: saline with Tween-80
  T/C: 111 % of control
dose: 1.0 mg/kg/injection, schedule: Q01DX009 (ip), vehicle: saline
  T/C: 98 % of control
dose: 2.0 mg/kg/injection, schedule: Q01DX009 (ip), vehicle: saline with Tween-80
  T/C: 116 % of control
dose: 2.0 mg/kg/injection, schedule: Q01DX009 (ip), vehicle: saline
  T/C: 94 % of control
dose: 2.0 mg/kg/injection, schedule: Q04DX003 (ip), vehicle: saline
  T/C: 105 % of control
[7]
  T/C: 105 % of control
dose: 4.0 mg/kg/injection, schedule: Q04DX003 (ip), vehicle: saline
  T/C: 94 % of control
[8]
  T/C: 90 % of control
dose: 8.0 mg/kg/injection, schedule: Q04DX003 (ip), vehicle: saline
  T/C: 105 % of control

## O=Cc1ccc(C(Cl)(Cl)Cl)cc1
[9]
  T/C: 91 % of control
[10]
  T/C: 103 % of control
[11]
  T/C: 101 % of control and 104 % of control
[12]
  T/C: 106 % of control and 107 % of control
[13]
  T/C: 103 % of control and 110 % of control

## CC(C)=Cc1ccccc1
[12]
  T/C: 95 % of control
dose: 100.0 mg/kg/injection, schedule: Q04DX003 (ip), vehicle: saline with Tween-80
  T/C: 95 % of control
[13]
  T/C: 86 % of control
dose: 200.0 mg/kg/injection, schedule: Q04DX003 (ip), vehicle: saline with Tween-80
  T/C: 93 % of control

## CCCCn1cnc2c(SC)ncnc21
[10]
  T/C: 90 % of control and 115 % of control
[11]
  T/C: 87 % of control and 111 % of control
[12]
  T/C: 92 % of control and 115 % of control

## O=C(Cc1ccccc1)NC/C=N/O
[11]
  T/C: 107 % of control
[12]
  T/C: 102 % of control
[13]
  T/C: 93 % of control
dose: 400.0 mg/kg/injection, schedule: Q01DX009 (ip), vehicle: saline with Tween-80
  T/C: 100 % of control

## O=NN(CCCl)C(=O)NC1c2cc(Cl)ccc2-c2c(Cl)cc(Cl)cc21 (stereo not drawn)
[9]
  T/C: 169 % of control
[10]
  T/C: 195 % of control
[11]
  T/C: 181 % of control and 186 % of control
[12]
  T/C: 104 % of control and 231 % of control
[13]
  T/C: 175 % of control

## O=C1N(c2nncs2)CCN1[N+](=O)[O-]
[14]
  T/C: 91 % of control
[15]
  T/C: 102 % of control
[16]
  T/C: 100 % of control
[5]
  T/C: 87 % of control

## O=C(NC(CS)C(=O)O)OCc1ccccc1 (stereo not drawn)
[16]
  T/C: 94 % of control
[4]
  T/C: 94 % of control

## O=C(O)CC(NC(=O)CP(=O)(O)O)C(=O)O.[NH-]C1CCCCC1[NH-].[Pt+2] (stereo not drawn)
dose: 0.4 mg/kg/injection, schedule: Q01DX009 (ip), vehicle: dextrose
  T/C: 122 % of control
dose: 0.78 mg/kg/injection, schedule: Q01DX009 (ip), vehicle: dextrose
  T/C: 154 % of control
dose: 1.56 mg/kg/injection, schedule: Q01DX009 (ip), vehicle: dextrose
  T/C: 165 % of control
dose: 3.0 mg/kg/injection, schedule: Q01DX009 (ip), vehicle: dextrose
  T/C: 123 % of control
dose: 3.2 mg/kg/injection, schedule: Q01DX009 (ip), vehicle: dextrose
  T/C: 163 % of control

## Cc1cccc(NC(=O)Nc2cccc(Cl)c2)c1C
dose: 100.0 mg/kg/injection, schedule: Q04DX003 (ip), vehicle: Klucel (hydroxypropylcellulose) (HPC)
  T/C: 107 % of control
dose: 200.0 mg/kg/injection, schedule: Q04DX003 (ip), vehicle: Klucel (hydroxypropylcellulose) (HPC)
  T/C: 100 % of control
dose: 400.0 mg/kg/injection, schedule: Q04DX003 (ip), vehicle: Klucel (hydroxypropylcellulose) (HPC)
  T/C: 103 % of control

## C/C=C(/C)N(C(C)=O)N(C(C)=O)c1ccc([N+](=O)[O-])cc1[N+](=O)[O-]
[4]
  T/C: 100 % of control
[5]
  T/C: 89 % of control
[6]
  T/C: 89 % of control

## CC12CCC(C1)C(C)(C)C2NCCCN1C(=O)c2ccc3c4c(ccc(c24)C1=O)C(=O)N(CCCNC1C2(C)CCC(C2)C1(C)C)C3=O (stereo not drawn)
dose: 6.25 mg/kg/injection, schedule: Q01DX009 (ip), vehicle: Klucel (hydroxypropylcellulose) (HPC)
  T/C: 100 % of control
[14]
  T/C: 96 % of control
[15]
  T/C: 106 % of control and 109 % of control

## CC1NCCNCCNCCNC(C)c2cccc1n2 (stereo not drawn)
dose: 6.25 mg/kg/injection, schedule: Q01DX009 (ip), vehicle: saline
  T/C: 107 % of control
[1]
  T/C: 98 % of control
[2]
  T/C: 102 % of control

## O=C1/C(=C\c2ccc([N+](=O)[O-])cc2)CS(=O)(=O)C/C1=C/c1ccc([N+](=O)[O-])cc1
[16]
  T/C: 91 % of control
[4]
  T/C: 97 % of control
[5]
  T/C: 102 % of control

## CCc1ccc(/C=C/c2ccc(O)c3ncccc23)[n+](C)c1
[7]
  T/C: 93 % of control
[8]
  T/C: 93 % of control
dose: 16.0 mg/kg/injection, schedule: Q01DX009 (ip), vehicle: saline with Tween-80
  T/C: 102 % of control
dose: 32.0 mg/kg/injection, schedule: Q01DX009 (ip), vehicle: saline with Tween-80
  T/C: 114 % of control

## O=c1ncccn1[C@@H]1O[C@H](CO)[C@H](O)C1O (stereo partly drawn)
[2]
  T/C: 119 % of control
[3]
  T/C: 115 % of control
dose: 400.0 mg/kg/injection, schedule: Q01DX009 (ip), vehicle: saline
  T/C: 166 % of control

## Cc1cc(C)c(-c2cc(O)c(C)cc2O)c(C)c1
[14]
  T/C: 95 % of control
[15]
  T/C: 97 % of control
[16]
  T/C: 97 % of control
[4]
  T/C: 93 % of control
[5]
  T/C: 90 % of control

## Cc1ccc(C#N)s1
dose: 3.12 mg/kg/injection, schedule: Q01DX009 (ip), vehicle: other
  T/C: 104 % of control
dose: 6.25 mg/kg/injection, schedule: Q01DX009 (ip), vehicle: other
  T/C: 109 % of control
dose: 12.5 mg/kg/injection, schedule: Q01DX009 (ip), vehicle: other
  T/C: 101 % of control
dose: 25.0 mg/kg/injection, schedule: Q01DX009 (ip), vehicle: other
  T/C: 108 % of control

## O=C1c2cccnc2C(=O)c2c(O)ccc(O)c21
[10]
  T/C: 92 % of control
[11]
  T/C: 103 % of control
[12]
  T/C: 112 % of control
[13]
  T/C: 89 % of control

## CCN1/C(=C/C=C/C=C/c2sc3ccccc3[n+]2CC)Sc2ccccc21
dose: 0.01 mg/kg/injection, schedule: Q01DX009 (ip), vehicle: saline
  T/C: 100 % of control
dose: 0.02 mg/kg/injection, schedule: Q01DX009 (ip), vehicle: saline
  T/C: 98 % of control
dose: 0.05 mg/kg/injection, schedule: Q01DX009 (ip), vehicle: saline
  T/C: 93 % of control
dose: 0.1 mg/kg/injection, schedule: Q01DX009 (ip), vehicle: saline
  T/C: 98 % of control
dose: 0.2 mg/kg/injection, schedule: Q01DX009 (ip), vehicle: saline
  T/C: 100 % of control

## COc1cccc2c1C(=O)c1c(O)c3c(c(O)c1C2=O)CC(O)(/C(C)=N/NC(=O)CCC(=O)N/N=C(\C)C1(O)Cc2c(O)c4c(c(O)c2C(OC2CC(N)C(O)C(C)O2)C1)C(=O)c1c(OC)cccc1C4=O)CC3OC1CC(N)C(O)C(C)O1 (stereo not drawn)
dose: 4.0 mg/kg/injection, schedule: Q01DX001 (ip), vehicle: water
  T/C: 163 % of control
dose: 8.0 mg/kg/injection, schedule: Q01DX001 (ip), vehicle: water
  T/C: 165 % of control and 168 % of control and 172 % of control
dose: 16.0 mg/kg/injection, schedule: Q01DX001 (ip), vehicle: water
  T/C: 189 % of control and 292 % of control
dose: 32.0 mg/kg/injection, schedule: Q01DX001 (ip), vehicle: water
  T/C: 123 % of control and 293 % of control and 313 % of control
dose: 64.0 mg/kg/injection, schedule: Q01DX001 (ip), vehicle: water
  T/C: 315 % of control

## C[C@@H]1C[C@](O)([C@@H](C)Cl)C(=O)O[C@@H]2CCN3CC=C(COC(=O)[C@]1(C)O)[C@H]23
dose: 5.5 mg/kg/injection, schedule: Q01DX009 (ip), vehicle: saline
  T/C: 97 % of control
dose: 11.0 mg/kg/injection, schedule: Q01DX009 (ip), vehicle: saline
  T/C: 90 % of control
dose: 22.0 mg/kg/injection, schedule: Q01DX009 (ip), vehicle: saline
  T/C: 111 % of control
